Assay results as given in ChEMBL document CHEMBL1275507, “Genomic analysis reveals a point mutation in the two-component sensor gene graS that leads to intermediate vancomycin resistance in clinical Staphylococcus aureus” (2008).
Values after ≈ are worked out from the molar mass of the structure shown.

Legend:
Staphylococcus aureus [1] = experiment: Antimicrobial activity against 2 MCF vancomycin-intermediate Staphylococcus aureus isolate JKD6008 by Etest method
Staphylococcus aureus [2] = experiment: Antimicrobial activity against 2 MCF graRS-deficient Staphylococcus aureus isolate JKD6205 harboring pCu1 plasmid by Etest method
Staphylococcus aureus [3] = experiment: Antimicrobial activity against 2 MCF graRS-deficient Staphylococcus aureus isolate JKD6196 by Etest method
Staphylococcus aureus [4] = experiment: Antimicrobial activity against 2 mCF Staphylococcus aureus isolate JKD6208 harboring graS T136I mutant gene by Etest method
Staphylococcus aureus [5] = experiment: Antimicrobial activity against 2 MCF graRS-deficient Staphylococcus aureus isolate JKD6206 harboring plasmid JKD6151 by Etest method

For `CN[C@H](CC(C)C)C(=O)N[C@H]1C(=O)N[C@@H](CC(N)=O)C(=O)N[C@H]2C(=O)N[C@H]3C(=O)N[C@H](C(=O)N[C@H](C(=O)O)c4cc(O)cc(O)c4-c4cc3ccc4O)[C@H](O)c3ccc(c(Cl)c3)Oc3cc2cc(c3O[C@@H]2O[C@H](CO)[C@@H](O)[C@H](O)[C@H]2O[C@H]2C[C@](C)(N)[C@H](O)[C@H](C)O2)Oc2ccc(cc2Cl)[C@H]1O` [VANCOMYCIN], the MIC (Staphylococcus aureus [1]) was 8 µg/mL (≈ 5.52 µM), the MIC (Staphylococcus aureus [2]) was 1.5 µg/mL (≈ 1.04 µM) and the MIC (Staphylococcus aureus [3]) was 1.5 µg/mL (≈ 1.04 µM). The MIC (Staphylococcus aureus [4]) was 6 µg/mL (≈ 4.14 µM) and the MIC (Staphylococcus aureus [5]) was 3 µg/mL (≈ 2.07 µM).
